Assay results taken from ChEMBL document CHEMBL1156686, “Xanthine oxidase-activated prodrugs of thymidine phosphorylase inhibitors” (Eur J Med Chem, 2008).

What was measured:
[1] = biological target: T1, Xanthine dehydrogenase/oxidase (Bos taurus, UniProt P80457); conditions: cattle
[2] = Inhibition of horse liver recombinant thymidine phosphorylase; parameters: species or system Equus caballus
[3] = biological target: T1, Xanthine dehydrogenase/oxidase; assay: Inhibition of bovine xanthine oxidase using hypoxanthine as a substrate
[4] = biological target: T1, Xanthine dehydrogenase/oxidase; assay: Inhibition of bovine xanthine oxidase using xanthine as a substrate

T1 sequence (P80457 whole entry): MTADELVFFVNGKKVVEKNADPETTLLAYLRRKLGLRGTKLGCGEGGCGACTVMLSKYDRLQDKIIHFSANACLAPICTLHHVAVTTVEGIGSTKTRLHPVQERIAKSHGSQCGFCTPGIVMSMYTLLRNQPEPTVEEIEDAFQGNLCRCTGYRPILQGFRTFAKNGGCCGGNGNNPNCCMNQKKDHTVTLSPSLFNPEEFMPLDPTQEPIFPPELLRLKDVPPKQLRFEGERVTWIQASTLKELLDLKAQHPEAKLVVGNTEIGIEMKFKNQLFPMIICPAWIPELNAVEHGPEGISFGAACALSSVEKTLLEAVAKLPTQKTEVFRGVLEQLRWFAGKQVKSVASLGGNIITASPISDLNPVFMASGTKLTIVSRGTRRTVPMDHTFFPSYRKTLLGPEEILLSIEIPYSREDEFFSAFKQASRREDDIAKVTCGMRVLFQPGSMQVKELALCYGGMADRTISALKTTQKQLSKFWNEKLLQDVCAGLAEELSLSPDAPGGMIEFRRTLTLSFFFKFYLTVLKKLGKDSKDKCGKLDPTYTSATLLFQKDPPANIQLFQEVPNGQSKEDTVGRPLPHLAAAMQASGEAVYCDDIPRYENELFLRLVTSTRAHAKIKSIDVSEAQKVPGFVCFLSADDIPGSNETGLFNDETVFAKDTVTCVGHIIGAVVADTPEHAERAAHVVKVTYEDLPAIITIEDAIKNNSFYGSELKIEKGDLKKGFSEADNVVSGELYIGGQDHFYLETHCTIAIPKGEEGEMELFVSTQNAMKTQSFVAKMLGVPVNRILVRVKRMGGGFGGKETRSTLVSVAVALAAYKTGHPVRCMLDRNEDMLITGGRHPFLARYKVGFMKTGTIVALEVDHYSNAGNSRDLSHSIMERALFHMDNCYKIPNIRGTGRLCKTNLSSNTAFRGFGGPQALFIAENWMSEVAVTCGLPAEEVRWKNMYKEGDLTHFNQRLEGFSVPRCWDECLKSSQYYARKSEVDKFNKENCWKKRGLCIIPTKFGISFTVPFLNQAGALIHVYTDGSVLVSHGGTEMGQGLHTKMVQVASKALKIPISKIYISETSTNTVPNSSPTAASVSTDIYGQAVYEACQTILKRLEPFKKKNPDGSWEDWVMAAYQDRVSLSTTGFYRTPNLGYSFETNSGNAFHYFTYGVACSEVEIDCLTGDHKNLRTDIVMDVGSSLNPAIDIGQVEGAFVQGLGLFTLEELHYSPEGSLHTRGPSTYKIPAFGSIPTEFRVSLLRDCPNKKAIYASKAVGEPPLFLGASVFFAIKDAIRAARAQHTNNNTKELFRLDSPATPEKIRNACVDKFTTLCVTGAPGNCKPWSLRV

SMILES | Km [1] | further results
Nc1[nH]c(=O)[nH]c(=O)c1Br |  | IC50 [2]: 30 µM
N=C1CCCN1Cc1nc[nH]c(=O)c1Cl | 64.9 µM | 
O=c1ncc2cc[nH]c2[nH]1 | 29.8 µM | 
O=c1[nH]c(=O)c2cc[nH]c2[nH]1 [7-DEAZAXANTHINE] |  | Ki [3]: 25 µM; Ki [4]: 70 µM

Second part, led by results:

Km [1] | SMILES | further results
44.4 µM | Nc1ncncc1Br | 
23.8 µM | Nc1nc[nH]c(=O)c1Br | 
32.5 µM | Nc1[nH]c(=O)ncc1Br | 
45.1 µM | O=c1[nH]cnc2[nH]ccc12 | 
